Source: patent US20210382058A1, “PATIENT SELECTION FOR TREATMENT OF MYC POSITIVE CANCERS WITH INDENOISOQUINOLINES” (Purdue Research Foundation, priority 2020, published 2021)
Read-outs that look alike come from different tables or passages of the source.

Key:
[1] = system: MYC protein expression in MCF-7 breast cancer cells; test: Western blotting of MYC protein level in MCF-7 cells; format: cell-based, human; settings: Homo sapiens, MCF7; western blotting, MCF-7 cells, 0.5, 1, 2, and 4 μM, 24 hours; read-out: MYC Inhibition
Outline: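 MCF-7 cells were exposed to compounds at 0.5, 1, 2 and 4 μM for 24 hours at 37° C. MYC was detected by immunoblot with ECL, using rabbit anti-MYC (1:1000) and anti-GAPDH (1:2000) as loading control.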

NCI-60 cancer cell lines = test: NCI-60 cancer cell line drug screen (GI50, MGM); format: cell-based, human; settings: Homo sapiens
Description: Cancer cells were incubated with the test compounds at five concentrations ranging from 100 μM to 10 nM for 48 h. […] The approximate average of GI50 values across the entire panel of NCI-60 cancer cell lines for each compound was recorded as the MGM value.

COc1cc2c3c(n(CCCn4ccnc4)c(=O)c2cc1OC)-c1cc2c(cc1C3=O)OCO2 [Compound 42]
minimal effective concentration [1]: 0.5 to 1 µM | GI50 (NCI-60 cancer cell lines; 786-0, Renal Cancer, 786-0, read-out: Antiproliferative Activities [GI50 (μM)]): < 0.01 µM | GI50 (NCI-60 cancer cell lines; A498, Renal Cancer, A498, read-out: Antiproliferative Activities [GI50 (μM)]): 7.17 µM | GI50 (NCI-60 cancer cell lines; A549, Non-Small Cell Lung Cancer, A549/ATCC, read-out: Antiproliferative Activities [GI50 (μM)]): 10.5 µM | GI50 (NCI-60 cancer cell lines; ACHN, Renal Cancer, ACHN, read-out: Antiproliferative Activities [GI50 (μM)]): < 0.01 µM | GI50 (NCI-60 cancer cell lines; CAKI-1, Renal Cancer, CAKI-1, read-out: Antiproliferative Activities [GI50 (μM)]): 0.32 µM | GI50 (NCI-60 cancer cell lines; CCRF-CEM, Leukemia, CCRF-CEM, read-out: Antiproliferative Activities [GI50 (μM)]): < 0.01 µM | GI50 (NCI-60 cancer cell lines; COLO 205, Colon Cancer, COLO 205, read-out: Antiproliferative Activities [GI50 (μM)]): > 100 µM | GI50 (NCI-60 cancer cell lines; DU-145, Prostate Cancer, DU-145, read-out: Antiproliferative Activities [GI50 (μM)]): < 0.01 µM | GI50 (NCI-60 cancer cell lines; EKVX, Non-Small Cell Lung Cancer, EKVX, read-out: Antiproliferative Activities [GI50 (μM)]): 70.7 µM | GI50 (NCI-60 cancer cell lines; HCC 2998, Colon Cancer, HCC-2998, read-out: Antiproliferative Activities [GI50 (μM)]): 29.3 µM | GI50 (NCI-60 cancer cell lines; HCT-15, Colon Cancer, HCT-15, read-out: Antiproliferative Activities [GI50 (μM)]): > 100 µM | GI50 (NCI-60 cancer cell lines; HCT-116, Colon Cancer, HCT-116, read-out: Antiproliferative Activities [GI50 (μM)]): 0.17 µM | GI50 (NCI-60 cancer cell lines; HL-60, read-out: Antiproliferative Activities [GI50 (μM)]): 0.02 µM | GI50 (NCI-60 cancer cell lines; HOP-62, Non-Small Cell Lung Cancer, HOP-62, read-out: Antiproliferative Activities [GI50 (μM)]): < 0.01 µM | GI50 (NCI-60 cancer cell lines; HOP-92, Non-Small Cell Lung Cancer, HOP-92, read-out: Antiproliferative Activities [GI50 (μM)]): 0.19 µM | GI50 (NCI-60 cancer cell lines; HT-29, Colon Cancer, HT29, read-out: Antiproliferative Activities [GI50 (μM)]): > 100 µM | GI50 (NCI-60 cancer cell lines; Hs-578T, Breast Cancer, HS 578T, read-out: Antiproliferative Activities [GI50 (μM)]): 54.2 µM | GI50 (NCI-60 cancer cell lines; IGROV-1, Ovarian Cancer, IGROV1, read-out: Antiproliferative Activities [GI50 (μM)]): 6.72 µM | GI50 (NCI-60 cancer cell lines; K562, Leukemia, K-562, read-out: Antiproliferative Activities [GI50 (μM)]): 1.49 µM | GI50 (NCI-60 cancer cell lines; KM12, Colon Cancer, KM12, read-out: Antiproliferative Activities [GI50 (μM)]): > 100 µM | GI50 (NCI-60 cancer cell lines; LOX IMVI, Melanoma, LOX IMVI, read-out: Antiproliferative Activities [GI50 (μM)]): 0.06 µM | GI50 (NCI-60 cancer cell lines; Leukemia, SR, read-out: Antiproliferative Activities [GI50 (μM)]): < 0.01 µM | GI50 (NCI-60 cancer cell lines; MCF7, Breast Cancer, MCF7, read-out: Antiproliferative Activities [GI50 (μM)]): < 0.01 µM | GI50 (NCI-60 cancer cell lines; MDA-MB-231, Breast Cancer, MDA-MB-231/ATCC, read-out: Antiproliferative Activities [GI50 (μM)]): 77.8 µM | GI50 (NCI-60 cancer cell lines; MDA-MB-435, Melanoma, MDA-MB-435, read-out: Antiproliferative Activities [GI50 (μM)]): > 100 µM | GI50 (NCI-60 cancer cell lines; MOLT-4, Leukemia, MOLT-4, read-out: Antiproliferative Activities [GI50 (μM)]): < 0.01 µM | GI50 (NCI-60 cancer cell lines; Malme-3M, Melanoma, MALME-3M, read-out: Antiproliferative Activities [GI50 (μM)]): 1.6 µM | GI50 (NCI-60 cancer cell lines; Melanoma, M14, read-out: Antiproliferative Activities [GI50 (μM)]): < 0.01 µM | GI50 (NCI-60 cancer cell lines; NCI-H23, Non-Small Cell Lung Cancer, NCI-H23, read-out: Antiproliferative Activities [GI50 (μM)]): 0.09 µM | GI50 (NCI-60 cancer cell lines; NCI-H226, Non-Small Cell Lung Cancer, NCI-H226, read-out: Antiproliferative Activities [GI50 (μM)]): 0.37 µM | GI50 (NCI-60 cancer cell lines; NCI-H322M, Non-Small Cell Lung Cancer, NCI-H322M, read-out: Antiproliferative Activities [GI50 (μM)]): > 100 µM | GI50 (NCI-60 cancer cell lines; NCI-H460, Non-Small Cell Lung Cancer, NCI-H460, read-out: Antiproliferative Activities [GI50 (μM)]): < 0.01 µM | GI50 (NCI-60 cancer cell lines; NCI-H522, Non-Small Cell Lung Cancer, NCI-H522, read-out: Antiproliferative Activities [GI50 (μM)]): < 0.01 µM | GI50 (NCI-60 cancer cell lines; OVCAR-3, Ovarian Cancer, OVCAR-3, read-out: Antiproliferative Activities [GI50 (μM)]): 16.4 µM | GI50 (NCI-60 cancer cell lines; OVCAR-4, Ovarian Cancer, OVCAR-4, read-out: Antiproliferative Activities [GI50 (μM)]): > 100 µM | GI50 (NCI-60 cancer cell lines; OVCAR-5, Ovarian Cancer, OVCAR-5, read-out: Antiproliferative Activities [GI50 (μM)]): > 100 µM | GI50 (NCI-60 cancer cell lines; OVCAR-8, Ovarian Cancer, OVCAR-8, read-out: Antiproliferative Activities [GI50 (μM)]): 1.03 µM | GI50 (NCI-60 cancer cell lines; Ovarian Cancer, NCl/ADR-RES, read-out: Antiproliferative Activities [GI50 (μM)]): 0.35 µM | GI50 (NCI-60 cancer cell lines; Prostate Cancer, PC-3, read-out: Antiproliferative Activities [GI50 (μM)]): 34.9 µM | GI50 (NCI-60 cancer cell lines; RPMI-8226, Leukemia, RPMI-8226, read-out: Antiproliferative Activities [GI50 (μM)]): < 0.01 µM | GI50 (NCI-60 cancer cell lines; RXF 393, Renal Cancer, RXF 393, read-out: Antiproliferative Activities [GI50 (μM)]): 8 µM | GI50 (NCI-60 cancer cell lines; Renal Cancer, U0-31, read-out: Antiproliferative Activities [GI50 (μM)]): 0.03 µM | GI50 (NCI-60 cancer cell lines; SF-295, CNS Cancer, SF-295, read-out: Antiproliferative Activities [GI50 (μM)]): < 0.01 µM | GI50 (NCI-60 cancer cell lines; SF-539, CNS Cancer, SF-539, read-out: Antiproliferative Activities [GI50 (μM)]): < 0.01 µM | GI50 (NCI-60 cancer cell lines; SK-MEL-2, Melanoma, SK-MEL-2, read-out: Antiproliferative Activities [GI50 (μM)]): > 100 µM | GI50 (NCI-60 cancer cell lines; SK-MEL-5, Melanoma, SK-MEL-5, read-out: Antiproliferative Activities [GI50 (μM)]): 0.22 µM | GI50 (NCI-60 cancer cell lines; SK-MEL-28, Melanoma, SK-MEL-28, read-out: Antiproliferative Activities [GI50 (μM)]): > 100 µM | GI50 (NCI-60 cancer cell lines; SK-OV-3, Ovarian Cancer, SK-OV-3, read-out: Antiproliferative Activities [GI50 (μM)]): < 0.01 µM | GI50 (NCI-60 cancer cell lines; SN12C, Renal Cancer, SN12C, read-out: Antiproliferative Activities [GI50 (μM)]): < 0.01 µM | GI50 (NCI-60 cancer cell lines; SNB-19, CNS Cancer, SNB-19, read-out: Antiproliferative Activities [GI50 (μM)]): < 0.01 µM | GI50 (NCI-60 cancer cell lines; SNB-75, CNS Cancer, SNB-75, read-out: Antiproliferative Activities [GI50 (μM)]): 0.23 µM | GI50 (NCI-60 cancer cell lines; SW-620, Colon Cancer, SW-620, read-out: Antiproliferative Activities [GI50 (μM)]): 0.06 µM | GI50 (NCI-60 cancer cell lines; T47D, Breast Cancer, T-47D, read-out: Antiproliferative Activities [GI50 (μM)]): < 0.01 µM | GI50 (NCI-60 cancer cell lines; TK-10, Renal Cancer, TK-10, read-out: Antiproliferative Activities [GI50 (μM)]): 73.7 µM | GI50 (NCI-60 cancer cell lines; U-251, CNS Cancer, U251, read-out: Antiproliferative Activities [GI50 (μM)]): < 0.01 µM | GI50 (NCI-60 cancer cell lines; UACC-62, Melanoma, UACC-62, read-out: Antiproliferative Activities [GI50 (μM)]): < 0.01 µM | GI50 (NCI-60 cancer cell lines; UACC-257, Melanoma, UACC-257, read-out: Antiproliferative Activities [GI50 (μM)]): > 100 µM
